The values that follow are results of earlier work, collected in patent US7718667B2, “Fused aminopiperidines as dipeptidyl peptidase-IV inhibitors for the treatment or prevention of diabetes” (Merck Sharp & Dohme Corp., priority 2004, dated 2010).

Structures are written as SMILES.

The subject of one data set is rats. The following applies: survival doubled from day 7.
The next data set deals with mouse. Conditions: cyclophosphamide-induced neutropenia.
The next data set deals with T1, DPP-IV (Homo sapiens, UniProt P27487).
T1 construct: GRF is rapidly degraded in plasma to GRF[3-44]; from tissue
T1 sequence (P27487 39-766 limits assumed, species assumed): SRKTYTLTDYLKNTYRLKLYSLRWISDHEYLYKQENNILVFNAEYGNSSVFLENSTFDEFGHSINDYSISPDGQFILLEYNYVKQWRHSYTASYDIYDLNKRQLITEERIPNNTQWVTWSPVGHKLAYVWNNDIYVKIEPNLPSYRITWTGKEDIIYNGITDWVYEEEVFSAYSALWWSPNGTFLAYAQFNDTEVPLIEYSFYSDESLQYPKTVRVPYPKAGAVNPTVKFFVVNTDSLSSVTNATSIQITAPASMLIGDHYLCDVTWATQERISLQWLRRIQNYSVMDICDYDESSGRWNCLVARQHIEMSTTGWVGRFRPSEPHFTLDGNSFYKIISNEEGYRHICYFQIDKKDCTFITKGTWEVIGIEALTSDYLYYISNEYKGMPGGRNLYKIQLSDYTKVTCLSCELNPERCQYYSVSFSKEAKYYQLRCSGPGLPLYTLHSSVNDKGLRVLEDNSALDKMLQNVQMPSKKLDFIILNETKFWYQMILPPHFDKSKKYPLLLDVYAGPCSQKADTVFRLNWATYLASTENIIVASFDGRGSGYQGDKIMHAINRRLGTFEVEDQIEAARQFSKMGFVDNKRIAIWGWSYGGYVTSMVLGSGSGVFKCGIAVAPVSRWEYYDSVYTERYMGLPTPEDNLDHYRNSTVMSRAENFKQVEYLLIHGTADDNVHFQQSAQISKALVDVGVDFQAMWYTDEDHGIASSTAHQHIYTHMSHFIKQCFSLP

As for `CC(C)N1CCC(c2ccccc2)(c2ccccc2)CC1` [Prodipine, Pro-Pro-diphenyl-phosphonate], the cardiac allograft survival with rats was 14 day. On to `CC(C)[C@H](N)C(=O)N1CCC[C@H]1B(O)O` [Val-Boro-Pro], for which the hematopoiesis result in the data set with mouse is listed as “stimulated hematopoiesis”.

As to `CC[C@H](C)[C@H](N)C(=O)N1CCC[C@H]1C(=O)N[C@H](C(=O)O)[C@@H](C)CC` [diprotin A], the “degradation of GRF in plasma to GRF[3-44]” value at DPP-IV was “prevented”.
